The record followed here is PMC10321576, “Cyclic peptides target the aromatic cage of a PHD-finger reader domain to modulate epigenetic protein function” (Chemical Science, 2023).

Read-outs that look alike come from different tables or passages of the source. Ends that are not written are not given here. Peptide text beside a SMILES is read from it.

In test [1] the target is T1, KDM7B PHD (Homo sapiens, UniProt Q9UPP1).
T1 construct: KDM7B 1-66; made in house
T1 sequence (Q9UPP1 1-66 isoform Q9UPP1-2): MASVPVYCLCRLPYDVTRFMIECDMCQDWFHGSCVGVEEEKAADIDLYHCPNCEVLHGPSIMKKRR
Nature of the test: BLI binding. On the set-up: key to BLI Screening, KDM7B PHD: (+) = binding; (-) = no binding; (NS) = non-specific. As to conditions: for BLI Screening, KDM7B PHD: qualitative assessment of binding by BLI. From the text: (§1) Figure S2. BLI for KDM7 proteins with cyclic peptides.
(§2) BLI traces for b inding to KDM7 protein domains immobilised by C-terminal His -tag on Ni -NTA
(§3) biosensors, against cyclic peptides. Response trace for each peptide concentration is represented by
(§4) a different colour, with the fitted curves overlaid in black.
(§5) concentration plotted, with 2-fold dilutions thereafter. Dual domain = PHD+JmjC. […]
(§6) against KDM7 and other protein domains. t1/2 = half life (0.693 / Koff)
(§7) (1 picture or pasted object on this page, not shown here)
For orientation: BLI is a label-free optical method that tracks binding on a fibre tip over time.

The target in test [2] is T1, KDM7B PHD. Nature of the test: AlphaScreen displacement of H3 1-21K4me3-Bt. It is filed as binding. As to conditions: for reduced potency relative to OC9: affinity (BLI) and displacement (AS) assays, KDM7B PHD-finger. From the text:
The functional effect of OC9 on the PHD-finger was further assessed using an AlphaScreen (AS) based proximity assay. […]

The target in another test is T2, KDM7B Dual (PHD+JmjC) (Homo sapiens, UniProt Q9UPP1).
T2 construct: Dual domain = PHD+JmjC; made in house
T2 sequence (Q9UPP1 37-483 limits assumed): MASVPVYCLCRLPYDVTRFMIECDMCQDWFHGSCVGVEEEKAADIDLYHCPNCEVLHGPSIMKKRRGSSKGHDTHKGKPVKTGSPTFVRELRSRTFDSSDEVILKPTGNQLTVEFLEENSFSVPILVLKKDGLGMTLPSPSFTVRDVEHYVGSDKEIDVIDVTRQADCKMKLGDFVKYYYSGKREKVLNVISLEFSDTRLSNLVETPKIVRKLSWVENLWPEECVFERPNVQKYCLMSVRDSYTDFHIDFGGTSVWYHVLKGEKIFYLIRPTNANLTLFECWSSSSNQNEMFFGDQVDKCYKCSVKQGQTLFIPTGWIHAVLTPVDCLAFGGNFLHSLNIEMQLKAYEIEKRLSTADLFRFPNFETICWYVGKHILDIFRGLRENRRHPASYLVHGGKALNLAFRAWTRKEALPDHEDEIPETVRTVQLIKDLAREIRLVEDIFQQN
Nature of the test: BLI binding. As to conditions: for BLI Screening, KDM7B Dual: qualitative assessment of binding by BLI; for koff / kon / Kd: 1:1 binding model; for Kd: His-tagged protein on Ni-NTA biosensors. Further details: key to BLI Screening, KDM7B Dual: (+) = binding; (-) = no binding; (NS) = non-specific.
Text: as §1, §2, §3, §4, §5, §6, §7

Another test concerns the target T3, KDM7B JmjC (Homo sapiens, UniProt Q9UPP1).
T3 construct: made in house
Nature of the test: BLI binding. On the set-up: key to BLI Screening, KDM7B JmjC: (+) = binding; (-) = no binding; (NS) = non-specific. As to conditions: for BLI Screening, KDM7B JmjC: qualitative assessment of binding by BLI; for Kd: read-out: BLI pKD, KDM7B JmjC (converted).
Text: as §1, §2, §3, §4, §5, §6, §7

Another test deals with T4, KDM7B Dual (Homo sapiens, UniProt Q9UPP1).
T4 construct: Dual = PHD+JmjC; made in house
T4 sequence (Q9UPP1 37-483 limits assumed): as above
Description: ITC binding. Here is the method:
Figure S10. ITC results: Tabulated values from 1:1 binding model and conditions
ITC buffer = 50 mM HEPES, 100 mM NaCl, pH 7.4, 0.2 µm filtered), at 25 °C. Dual = PHD+JmjC. HisTrx
= His 6+thioredoxin tag, GST = glutathione S -transferase tag, ZB = Z -basic tag. Syringe contained
peptide solution in buffer. Cell contained protein solution in buffer.
as §7

The target of another test is T5, KDM7B dual domain (Homo sapiens, UniProt Q9UPP1).
T5 construct: dual domain (PHD-JmjC) of KDM7B; His-tag (C); made in house
T5 sequence (Q9UPP1 37-483 limits assumed): as above
Nature of the test: HDX-MS. Type of test: binding. Particulars: relative to DMSO. The text has this: To further evaluate the interactions of OC9 with KDM7B we used hydrogen–deuterium exchange mass spectrometry (HDX-MS), which informs on protein dynamics by following deuterium incorporation into the protein amide backbone (Fig. 2).
The residue level view was generated by averaging mass changes across overlapping peptide fragments. Supporting data available in ESI. ^† K4me3 binding aromatic cage residues (‘YYMW’ Fig. 1a) are indicated by red asterix.

Setting [3] is: His-tagged protein on Ni-NTA biosensors, 1:1 binding model, read-out: BLI KD, KDM7B PHD.

T3 sequence (Q9UPP1 231-387 limits assumed): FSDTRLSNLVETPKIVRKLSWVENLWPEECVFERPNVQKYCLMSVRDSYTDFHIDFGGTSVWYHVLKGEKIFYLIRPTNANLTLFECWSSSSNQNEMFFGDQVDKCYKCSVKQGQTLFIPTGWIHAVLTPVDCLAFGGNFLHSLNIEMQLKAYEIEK

What is called IC50 is the concentration that gives 50% inhibition. In the case of `CC(C)C[C@@H]1NC(=O)[C@H](Cc2ccc(O)cc2)NC(=O)[C@H](Cc2ccc(O)cc2)NC(=O)CSC[C@@H](C(N)=O)NC(=O)[C@H]([C@@H](C)O)NC(=O)[C@H](CCCNC(=N)N)NC(=O)[C@H](Cc2ccccc2)NC(=O)[C@H](CCCCN)NC(=O)[C@H](CO)NC(=O)[C@@H]2CCCN2C(=O)[C@H](Cc2ccc(O)cc2)NC(=O)[C@@H]2CCCN2C(=O)[C@H](Cc2c[nH]cn2)NC(=O)[C@H]([C@@H](C)O)NC1=O` [V10K] (HELM PEPTIDE1{[O=C(C[*:3])[*:2]].Y.Y.L.T.H.P.Y.P.S.K.F.R.T.C.[am]}$PEPTIDE1,PEPTIDE1,1:R3-15:R3$$$V2.0; C-terminus assumed), at KDM7B PHD [1] (read-out: BLI KD, KDM7B PHD-finger), the Kd is above 10000 nM. The IC50 at KDM7B PHD [2] (read-out: IC50^AS, KDM7B PHD-finger) was above 10000 nM.
In the case of “YLVRIYPNKLIWWC (also: sidechain bridge or staple (positions not given here)) [OC6, enriched cyclic peptide, non-specific in BLI]”, the “BLI Screening, KDM7B PHD” value on KDM7B PHD [1] was “NS”. For the same compound, on KDM7B Dual (PHD+JmjC), the “BLI Screening, KDM7B Dual” value is listed as “NS”. Also, the “BLI Screening, KDM7B JmjC” value at KDM7B JmjC is “NS”.
Regarding “Ac-YYLTHPYPSVFRTC-NH2 (N-terminus and C-terminus assumed) [Linear]”, the “reduced potency relative to OC9” value at KDM7B PHD [2] is on record as above 100 fold.
Turning to `CC(C)C[C@@H]1NC(=O)[C@H](Cc2ccc(O)cc2)NC(=O)[C@H](Cc2ccc(O)cc2)NC(=O)CSC[C@@H](C(N)=O)NC(=O)[C@H]([C@@H](C)O)NC(=O)[C@H](C)NC(=O)[C@H](Cc2ccccc2)NC(=O)[C@H](C(C)C)NC(=O)[C@H](CO)NC(=O)[C@@H]2CCCN2C(=O)[C@H](Cc2ccc(O)cc2)NC(=O)[C@@H]2CCCN2C(=O)[C@H](Cc2c[nH]cn2)NC(=O)[C@H]([C@@H](C)O)NC1=O` [R12A] (HELM PEPTIDE1{[O=C(C[*:3])[*:2]].Y.Y.L.T.H.P.Y.P.S.V.F.A.T.C.[am]}$PEPTIDE1,PEPTIDE1,1:R3-15:R3$$$V2.0; C-terminus assumed), the “faster off-rate by BLI (vs OC9)” value on KDM7B PHD [1] is reported as around 100 ×. Also, the “reduced potency relative to OC9” value on KDM7B PHD [2] is reported as “much weaker”.
By koff is commonly meant the first-order rate constant of dissociation. As usually defined, the kon is the rate constant with which the complex forms. On to `CC[C@H](C)[C@@H]1NC(=O)[C@H](Cc2c[nH]c3ccccc23)NC(=O)[C@H](CO)NC(=O)[C@H](CC(C)C)NC(=O)[C@H](Cc2ccc(O)cc2)NC(=O)[C@H](Cc2ccc(O)cc2)NC(=O)[C@H]([C@@H](C)O)NC(=O)CNC(=O)[C@H](Cc2ccc(O)cc2)NC(=O)[C@H](C(C)C)NC(=O)[C@H](Cc2ccc(O)cc2)NC(=O)CSC[C@@H](C(N)=O)NC(=O)[C@@H]2CCCN2C1=O` [OC4] (HELM PEPTIDE1{[O=C(C[*:3])[*:2]].Y.V.Y.G.T.Y.Y.L.S.W.I.P.C.[am]}$PEPTIDE1,PEPTIDE1,1:R3-14:R3$$$V2.0), for which the Kd at KDM7B PHD [1] (setting [3]) is above 1000 nM. Also, the “BLI Screening, KDM7B PHD” value at KDM7B PHD [1] is “-”. Besides, on KDM7B Dual (PHD+JmjC), the koff was 0.0124 ± 0.0001 s⁻¹; the kon was found to be 212000 ± 2000 M⁻¹ s⁻¹; the Kd came out at 58.6 nM; the “BLI Screening, KDM7B Dual” value was “+”. At KDM7B JmjC (1:1 binding model), the koff was found to be 0.0245 ± 0.0001 s⁻¹, the kon stood at 249000 ± 3000 M⁻¹ s⁻¹ and the Kd was 100 nM. Also, the “BLI Screening, KDM7B JmjC” value on KDM7B JmjC was “+”.
With `CC(C)C[C@@H]1NC(=O)[C@H](CO)NC(=O)[C@@H]2CCCN2C(=O)[C@H](Cc2ccc(O)cc2)NC(=O)[C@@H]2CCCN2C(=O)[C@H](Cc2c[nH]cn2)NC(=O)[C@H]([C@@H](C)O)NC(=O)[C@H](CC(C)C)NC(=O)[C@H](Cc2ccc(O)cc2)NC(=O)[C@H](Cc2ccc(O)cc2)NC(=O)CSC[C@@H](C(N)=O)NC(=O)[C@H]([C@@H](C)O)NC(=O)[C@H](CCCNC(=N)N)NC(=O)[C@H](Cc2ccccc2)NC1=O` [V10L] (HELM PEPTIDE1{[O=C(C[*:3])[*:2]].Y.Y.L.T.H.P.Y.P.S.L.F.R.T.C.[am]}$PEPTIDE1,PEPTIDE1,1:R3-15:R3$$$V2.0; C-terminus assumed), on KDM7B PHD [1], the “reduction in KD in BLI compared to OC9” value is above 80 fold and the “reduction in t1/2 in BLI compared to OC9” value is reported as above 75 fold. Besides, the “reduction in IC50^AS compared to OC9” value on KDM7B PHD [2] is listed as 10 fold.
For the compound `CC[C@H](C)[C@@H]1NC(=O)[C@H](CC(C)C)NC(=O)[C@H](CCCNC(=N)N)NC(=O)[C@H](CCCNC(=N)N)NC(=O)[C@@H]2CCCN2C(=O)[C@H](Cc2ccc(O)cc2)NC(=O)[C@H](C(C)C)NC(=O)[C@H](CC(C)C)NC(=O)[C@H](CC(C)C)NC(=O)[C@H](C(C)C)NC(=O)[C@@H]2CCCN2C(=O)[C@H](Cc2ccc(O)cc2)NC(=O)CSC[C@@H](C(N)=O)NC1=O` [OC3] (HELM PEPTIDE1{[O=C(C[*:3])[*:2]].Y.P.V.L.L.V.Y.P.R.R.L.I.C.[am]}$PEPTIDE1,PEPTIDE1,1:R3-14:R3$$$V2.0), the Kd is above 1000 nM on KDM7B PHD [1] (setting [3]); 29.5 nM at KDM7B Dual (PHD+JmjC); above 1000 nM on KDM7B JmjC (1:1 binding model); 163 nM at KDM7B Dual (50 mM HEPES, 100 mM NaCl, pH 7.4, 25 °C, 1:1 binding model). Besides, the “BLI Screening, KDM7B PHD” value at KDM7B PHD [1] was “-”. Moreover, the koff on KDM7B Dual (PHD+JmjC) turned out to be 0.0148 ± 0.0001 s⁻¹. This compound came in with a kon on KDM7B Dual (PHD+JmjC) of 502000 ± 5000 M⁻¹ s⁻¹. Further, the “BLI Screening, KDM7B Dual” value on KDM7B Dual (PHD+JmjC) is “+”. Besides, the “BLI Screening, KDM7B JmjC” value on KDM7B JmjC is “-”. For the same compound, the “ITC ΔH, KDM7B Dual” value at KDM7B Dual (25 °C) is listed as -16.3 ± 1.5 kJ mol -1. The “ITC N, KDM7B Dual” value at KDM7B Dual (stoichiometry) stood at 1.37 ± 0.05. On KDM7B dual domain, the “HDX-MS effect on deuterium uptake, KDM7B dual domain” value was “affected deuterium uptake in both domains”.
Consider “YIVPSPIWYHWVAC (also: sidechain bridge or staple (positions not given here)) [OC10]”, for which, on KDM7B Dual (PHD+JmjC), the “BLI Screening, KDM7B Dual” value was “-”.
In the case of “YPYILYPSVYTTNC (also: sidechain bridge or staple (positions not given here)) [OC8]”, the “BLI Screening, KDM7B Dual” value on KDM7B Dual (PHD+JmjC) is “-”.
As for `CC(C)C[C@@H]1NC(=O)[C@H](Cc2ccc(O)cc2)NC(=O)[C@H](Cc2ccc(O)cc2)NC(=O)CSC[C@@H](C(N)=O)NC(=O)[C@H]([C@@H](C)O)NC(=O)[C@H](CCCNC(=N)N)NC(=O)[C@H](Cc2ccccc2)NC(=O)[C@H](C(C)C)NC(=O)[C@H](C)NC(=O)[C@@H]2CCCN2C(=O)[C@H](Cc2ccc(O)cc2)NC(=O)[C@@H]2CCCN2C(=O)[C@H](Cc2c[nH]cn2)NC(=O)[C@H]([C@@H](C)O)NC1=O` [S9A] (HELM PEPTIDE1{[O=C(C[*:3])[*:2]].Y.Y.L.T.H.P.Y.P.A.V.F.R.T.C.[am]}$PEPTIDE1,PEPTIDE1,1:R3-15:R3$$$V2.0; C-terminus assumed), the “reduced potency relative to OC9” value at KDM7B PHD [2] was “much weaker”.
